Experimental data reported in PMC9898036, “VIP152 is a selective CDK9 inhibitor with pre-clinical in vitro and in vivo efficacy in chronic lymphocytic leukemia” (Leukemia, 2022).

Assays:
Assay type in all cases: binding
ACVRL1 = ACVRL1 (Homo sapiens, UniProt P37023); test: KINOMEscan: ACVRL1; details: 1000 nM, read-out: Percent Control
[1] = molecular target: RSK4(Kin.Dom.2-C-terminal) (Homo sapiens, UniProt Q9UK32); test: KINOMEscan: RSK4(Kin.Dom.2-C-terminal); details: 100 nM, read-out: Percent Control
MAP3K15 = MAP3K15 (Homo sapiens, UniProt Q6ZN16); test: KINOMEscan: MAP3K15; details: 1000 nM, read-out: Percent Control
MAPKAPK5 = MAPKAPK5 (Homo sapiens, UniProt Q8IW41); test: KINOMEscan: MAPKAPK5; details: 1000 nM, read-out: Percent Control
TAK1 = TAK1 (Homo sapiens, UniProt O43318); test: KINOMEscan: TAK1; details: 100 nM, read-out: Percent Control
SRMS = SRMS (Homo sapiens, UniProt Q9H3Y6); test: KINOMEscan: SRMS; details: 100 nM, read-out: Percent Control
CLK2 = CLK2 (Homo sapiens, UniProt P49760); test: KINOMEscan: CLK2; details: 1000 nM, read-out: Percent Control
Rolipram = test: Eurofins Diversity Panel; details: rat, Conc. 10 μM
Histamine H2 = Histamine H2 (Homo sapiens, UniProt P25021); test: Eurofins Diversity Panel; details: hum, Conc. 10 μM
BMPR2 = BMPR2 (Homo sapiens, UniProt Q13873); test: KINOMEscan: BMPR2; details: 1000 nM, read-out: Percent Control
FGFR3(G697C) = FGFR3(G697C) (Homo sapiens, UniProt P22607, G697C); test: KINOMEscan: FGFR3(G697C); details: 1000 nM, read-out: Percent Control
Dopamine D2S = Dopamine D2S (Homo sapiens, UniProt P14416); test: Eurofins Diversity Panel; details: hum, Conc. 10 μM
MTOR = MTOR (Homo sapiens, UniProt P42345); test: KINOMEscan: MTOR; details: 1000 nM, read-out: Percent Control
CSNK2A2 = CSNK2A2 (Homo sapiens, UniProt P19784); test: KINOMEscan: CSNK2A2; details: 1000 nM, read-out: Percent Control
[2] = molecular target: JAK3(JH1domain-catalytic) (Homo sapiens, UniProt P52333); test: KINOMEscan: JAK3(JH1domain-catalytic); details: 1000 nM, read-out: Percent Control
Purinergic P2X = test: Eurofins Diversity Panel; details: rabbit, Conc. 10 μM
DRAK1 = DRAK1 (Homo sapiens, UniProt Q9UEE5); test: KINOMEscan: DRAK1; details: 1000 nM, read-out: Percent Control
[3] = molecular target: RSK4(Kin.Dom.1-N-terminal) (Homo sapiens, UniProt Q9UK32); test: KINOMEscan: RSK4(Kin.Dom.1-N-terminal); details: 100 nM, read-out: Percent Control
MELK = MELK (Homo sapiens, UniProt Q14680); test: KINOMEscan: MELK; details: 1000 nM, read-out: Percent Control
TYRO3 = TYRO3 (Homo sapiens, UniProt Q06418); test: KINOMEscan: TYRO3; details: 100 nM, read-out: Percent Control
YES = YES (Homo sapiens, UniProt P07947); test: KINOMEscan: YES; details: 100 nM, read-out: Percent Control
SGK2 = SGK2 (Homo sapiens, UniProt Q9HBY8); test: KINOMEscan: SGK2; details: 100 nM, read-out: Percent Control
CAMK1D = CAMK1D (Homo sapiens, UniProt Q8IU85); test: KINOMEscan: CAMK1D; details: 1000 nM, read-out: Percent Control
MINK = MINK (Homo sapiens, UniProt Q8N4C8); test: KINOMEscan: MINK; details: 1000 nM, read-out: Percent Control
EPHA2 = EPHA2 (Homo sapiens, UniProt P29317); test: KINOMEscan: EPHA2; details: 1000 nM, read-out: Percent Control
ULK1 = ULK1 (Homo sapiens, UniProt O75385); test: KINOMEscan: ULK1; details: 100 nM, read-out: Percent Control
MKK7 = MKK7 (Homo sapiens, UniProt O14733); test: KINOMEscan: MKK7; details: 1000 nM, read-out: Percent Control
JNK1 = JNK1 (Homo sapiens, UniProt P45983); test: KINOMEscan: JNK1; details: 1000 nM, read-out: Percent Control
AMPK-alpha2 = AMPK-alpha2 (Homo sapiens, UniProt P54646); test: KINOMEscan: AMPK-alpha2; details: 1000 nM, read-out: Percent Control
WNK4 = WNK4 (Homo sapiens, UniProt Q96J92); test: KINOMEscan: WNK4; details: 100 nM, read-out: Percent Control
MAP3K2 = MAP3K2 (Homo sapiens, UniProt Q9Y2U5); test: KINOMEscan: MAP3K2; details: 1000 nM, read-out: Percent Control
ERBB3 = ERBB3 (Homo sapiens, UniProt P21860); test: KINOMEscan: ERBB3; details: 1000 nM, read-out: Percent Control
EGFR(E746-A750del) = EGFR(E746-A750del) (Homo sapiens, UniProt P00533, DEL746-750); test: KINOMEscan: EGFR(E746-A750del); details: 1000 nM, read-out: Percent Control
EPHB3 = EPHB3 (Homo sapiens, UniProt P54753); test: KINOMEscan: EPHB3; details: 1000 nM, read-out: Percent Control
CHEK1 = CHEK1 (Homo sapiens, UniProt O14757); test: KINOMEscan: CHEK1; details: 1000 nM, read-out: Percent Control
Tachykinin NK1 = Tachykinin NK1 (Homo sapiens, UniProt P25103); test: Eurofins Diversity Panel; details: hum, Conc. 10 μM
IKK-epsilon = IKK-epsilon (Homo sapiens, UniProt Q14164); test: KINOMEscan: IKK-epsilon; details: 1000 nM, read-out: Percent Control
TNIK = TNIK (Homo sapiens, UniProt Q9UKE5); test: KINOMEscan: TNIK; details: 100 nM, read-out: Percent Control
GABAA, Muscimol, Central = test: Eurofins Diversity Panel; details: rat, Conc. 10 μM
EPHB1 = EPHB1 (Homo sapiens, UniProt P54762); test: KINOMEscan: EPHB1; details: 1000 nM, read-out: Percent Control
RET = RET (Homo sapiens, UniProt P07949); test: KINOMEscan: RET; details: 100 nM, read-out: Percent Control

Sequence of EGFR(E746-A750del) (P00533 with tags, fused parts or gaps DEL746-750 limits assumed): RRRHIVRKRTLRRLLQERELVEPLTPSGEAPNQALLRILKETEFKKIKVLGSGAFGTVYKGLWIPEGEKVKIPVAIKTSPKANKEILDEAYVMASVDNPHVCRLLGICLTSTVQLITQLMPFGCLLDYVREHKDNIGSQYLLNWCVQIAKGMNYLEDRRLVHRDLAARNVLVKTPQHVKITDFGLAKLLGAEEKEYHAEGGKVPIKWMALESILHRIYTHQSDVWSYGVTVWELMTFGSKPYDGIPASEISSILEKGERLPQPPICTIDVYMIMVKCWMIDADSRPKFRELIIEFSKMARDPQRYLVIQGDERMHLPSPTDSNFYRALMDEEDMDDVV
Sequence of CSNK2A2 (P19784 whole entry): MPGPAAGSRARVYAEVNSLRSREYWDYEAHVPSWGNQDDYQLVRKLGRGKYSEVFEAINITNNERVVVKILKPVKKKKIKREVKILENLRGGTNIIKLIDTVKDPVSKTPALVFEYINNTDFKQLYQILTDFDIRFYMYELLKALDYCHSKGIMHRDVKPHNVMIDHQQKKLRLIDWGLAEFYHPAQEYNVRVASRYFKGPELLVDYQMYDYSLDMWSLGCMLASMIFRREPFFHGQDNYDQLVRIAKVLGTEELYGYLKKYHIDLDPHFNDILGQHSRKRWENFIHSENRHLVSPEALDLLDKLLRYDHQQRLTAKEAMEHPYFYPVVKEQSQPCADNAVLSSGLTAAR
Sequence of FGFR3(G697C) (P22607 23-806 G697C): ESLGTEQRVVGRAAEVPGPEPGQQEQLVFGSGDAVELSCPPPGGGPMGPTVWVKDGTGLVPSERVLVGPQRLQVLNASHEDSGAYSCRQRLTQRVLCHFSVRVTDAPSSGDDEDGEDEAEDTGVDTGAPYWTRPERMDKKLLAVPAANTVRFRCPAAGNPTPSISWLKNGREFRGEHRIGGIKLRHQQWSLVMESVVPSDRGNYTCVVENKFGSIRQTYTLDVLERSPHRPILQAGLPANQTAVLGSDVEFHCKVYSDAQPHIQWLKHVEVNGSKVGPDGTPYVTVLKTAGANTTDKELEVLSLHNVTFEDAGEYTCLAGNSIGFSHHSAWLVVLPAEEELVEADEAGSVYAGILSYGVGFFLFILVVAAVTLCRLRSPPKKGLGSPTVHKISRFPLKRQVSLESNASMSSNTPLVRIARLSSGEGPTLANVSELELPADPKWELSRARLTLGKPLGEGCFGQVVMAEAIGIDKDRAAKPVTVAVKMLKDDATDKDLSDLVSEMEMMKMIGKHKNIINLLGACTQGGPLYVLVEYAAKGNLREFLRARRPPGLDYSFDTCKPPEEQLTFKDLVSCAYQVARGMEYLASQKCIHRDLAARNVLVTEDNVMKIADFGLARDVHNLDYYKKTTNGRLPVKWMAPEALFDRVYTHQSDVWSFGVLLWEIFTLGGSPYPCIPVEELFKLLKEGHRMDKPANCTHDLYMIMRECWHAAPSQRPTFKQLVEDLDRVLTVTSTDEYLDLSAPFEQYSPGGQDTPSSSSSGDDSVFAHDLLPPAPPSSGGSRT
Sequence of TAK1 (O43318 whole entry): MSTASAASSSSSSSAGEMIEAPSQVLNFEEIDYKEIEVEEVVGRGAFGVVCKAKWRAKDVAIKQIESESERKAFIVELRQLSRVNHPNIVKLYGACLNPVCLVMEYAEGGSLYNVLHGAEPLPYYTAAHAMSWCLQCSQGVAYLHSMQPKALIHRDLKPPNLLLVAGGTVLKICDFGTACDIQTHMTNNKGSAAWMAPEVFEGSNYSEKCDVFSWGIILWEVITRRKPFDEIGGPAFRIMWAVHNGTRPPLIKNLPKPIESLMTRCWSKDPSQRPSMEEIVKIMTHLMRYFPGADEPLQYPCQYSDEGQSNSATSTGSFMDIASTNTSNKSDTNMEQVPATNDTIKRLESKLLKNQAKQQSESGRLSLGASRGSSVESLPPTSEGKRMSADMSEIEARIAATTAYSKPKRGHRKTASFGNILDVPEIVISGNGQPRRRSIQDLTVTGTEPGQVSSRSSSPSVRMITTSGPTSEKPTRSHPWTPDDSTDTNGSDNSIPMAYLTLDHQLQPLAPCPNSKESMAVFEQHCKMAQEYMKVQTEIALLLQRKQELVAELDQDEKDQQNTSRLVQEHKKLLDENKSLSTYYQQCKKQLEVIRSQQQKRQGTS
Sequence of JNK1 (P45983 whole entry): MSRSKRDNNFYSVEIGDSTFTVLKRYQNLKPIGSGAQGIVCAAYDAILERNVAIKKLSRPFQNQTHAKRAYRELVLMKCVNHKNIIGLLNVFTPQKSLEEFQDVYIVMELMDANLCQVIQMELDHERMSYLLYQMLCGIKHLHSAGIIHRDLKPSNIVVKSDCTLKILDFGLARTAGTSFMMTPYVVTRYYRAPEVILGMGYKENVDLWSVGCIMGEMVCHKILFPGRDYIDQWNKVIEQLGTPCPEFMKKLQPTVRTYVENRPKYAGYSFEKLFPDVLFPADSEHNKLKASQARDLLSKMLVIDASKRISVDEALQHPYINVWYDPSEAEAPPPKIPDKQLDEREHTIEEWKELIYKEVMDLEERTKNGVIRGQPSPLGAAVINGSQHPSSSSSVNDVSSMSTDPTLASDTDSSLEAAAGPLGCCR
Sequence of MAP3K15 (Q6ZN16 whole entry): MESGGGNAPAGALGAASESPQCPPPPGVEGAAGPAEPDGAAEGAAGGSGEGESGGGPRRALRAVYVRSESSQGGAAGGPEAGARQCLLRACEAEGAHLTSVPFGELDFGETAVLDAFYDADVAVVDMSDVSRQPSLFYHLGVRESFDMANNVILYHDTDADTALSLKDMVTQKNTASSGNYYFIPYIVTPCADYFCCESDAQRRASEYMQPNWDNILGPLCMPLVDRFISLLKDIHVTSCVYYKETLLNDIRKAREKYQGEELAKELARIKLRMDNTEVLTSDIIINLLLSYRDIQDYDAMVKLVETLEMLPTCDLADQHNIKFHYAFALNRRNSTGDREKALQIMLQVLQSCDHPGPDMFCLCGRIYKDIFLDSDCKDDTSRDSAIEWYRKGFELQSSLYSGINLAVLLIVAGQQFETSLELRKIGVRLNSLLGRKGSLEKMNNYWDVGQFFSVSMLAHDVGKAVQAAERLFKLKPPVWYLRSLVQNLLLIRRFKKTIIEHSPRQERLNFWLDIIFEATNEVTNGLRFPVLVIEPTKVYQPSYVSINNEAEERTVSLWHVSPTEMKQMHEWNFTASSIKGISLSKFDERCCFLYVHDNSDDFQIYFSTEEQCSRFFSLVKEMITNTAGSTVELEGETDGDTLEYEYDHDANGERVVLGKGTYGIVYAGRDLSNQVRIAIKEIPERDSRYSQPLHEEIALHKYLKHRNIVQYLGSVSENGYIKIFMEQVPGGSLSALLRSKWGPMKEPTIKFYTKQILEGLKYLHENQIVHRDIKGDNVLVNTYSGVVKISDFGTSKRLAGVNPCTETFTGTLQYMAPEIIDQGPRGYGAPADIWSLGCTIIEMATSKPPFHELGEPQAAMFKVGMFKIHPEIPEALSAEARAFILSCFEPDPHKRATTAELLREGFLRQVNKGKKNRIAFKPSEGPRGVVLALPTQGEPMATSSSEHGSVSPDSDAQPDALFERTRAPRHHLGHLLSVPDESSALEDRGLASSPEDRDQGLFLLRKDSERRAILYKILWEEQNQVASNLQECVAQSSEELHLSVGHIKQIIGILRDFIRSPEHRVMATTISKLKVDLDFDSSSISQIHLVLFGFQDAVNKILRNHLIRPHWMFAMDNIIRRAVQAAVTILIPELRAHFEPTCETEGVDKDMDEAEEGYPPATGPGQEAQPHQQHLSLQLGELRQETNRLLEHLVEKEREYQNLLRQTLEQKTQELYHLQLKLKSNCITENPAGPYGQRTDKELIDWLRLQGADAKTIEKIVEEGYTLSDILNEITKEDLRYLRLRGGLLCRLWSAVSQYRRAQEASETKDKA
Sequence of MKK7 (O14733 whole entry): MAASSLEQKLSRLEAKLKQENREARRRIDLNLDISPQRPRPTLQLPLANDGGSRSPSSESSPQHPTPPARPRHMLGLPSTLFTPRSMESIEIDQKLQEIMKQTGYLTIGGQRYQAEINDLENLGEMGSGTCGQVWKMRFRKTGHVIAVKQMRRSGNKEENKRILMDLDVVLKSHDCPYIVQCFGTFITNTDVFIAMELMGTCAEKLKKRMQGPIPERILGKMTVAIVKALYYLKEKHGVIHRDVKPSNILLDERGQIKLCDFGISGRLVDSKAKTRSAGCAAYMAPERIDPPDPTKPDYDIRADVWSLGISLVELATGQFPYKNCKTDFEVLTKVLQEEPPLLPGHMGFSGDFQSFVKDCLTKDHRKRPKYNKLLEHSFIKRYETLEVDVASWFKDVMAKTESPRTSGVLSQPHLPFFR
Sequence of Histamine H2 (P25021 whole entry): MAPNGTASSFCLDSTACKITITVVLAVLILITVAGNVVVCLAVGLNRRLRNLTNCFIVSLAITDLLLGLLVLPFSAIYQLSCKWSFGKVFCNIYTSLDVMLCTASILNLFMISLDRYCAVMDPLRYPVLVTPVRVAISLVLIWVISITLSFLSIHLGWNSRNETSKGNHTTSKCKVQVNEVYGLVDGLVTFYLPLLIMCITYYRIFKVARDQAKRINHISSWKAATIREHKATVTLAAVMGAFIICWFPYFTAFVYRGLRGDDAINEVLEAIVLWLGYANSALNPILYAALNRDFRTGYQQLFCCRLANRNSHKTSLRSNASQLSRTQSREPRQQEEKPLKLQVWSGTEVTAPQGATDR
Sequence of SGK2 (Q9HBY8 whole entry): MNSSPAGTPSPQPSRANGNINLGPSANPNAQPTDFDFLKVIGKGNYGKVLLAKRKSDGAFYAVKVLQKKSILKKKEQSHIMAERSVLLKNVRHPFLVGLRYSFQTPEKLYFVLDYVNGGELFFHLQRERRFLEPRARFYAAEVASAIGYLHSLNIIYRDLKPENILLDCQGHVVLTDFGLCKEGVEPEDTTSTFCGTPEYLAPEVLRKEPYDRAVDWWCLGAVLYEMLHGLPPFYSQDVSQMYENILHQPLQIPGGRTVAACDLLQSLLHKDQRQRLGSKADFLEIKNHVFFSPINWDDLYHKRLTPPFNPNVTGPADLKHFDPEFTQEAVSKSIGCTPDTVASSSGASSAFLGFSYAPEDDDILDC

SMILES: COc1cc(F)ccc1-c1cc(Nc2cc(CS(C)(=N)=O)ccn2)ncc1F (centres unmarked) [VIP152]
- remaining binding at 1 µM (ACVRL1): 38%
- remaining binding at 0.1 µM [1]: 100%
- remaining binding at 1 µM (MAP3K15): 93%
- remaining binding at 1 µM (MAPKAPK5): 89%
- remaining binding at 0.1 µM (TAK1): 97%
- remaining binding at 0.1 µM (SRMS): 98%
- remaining binding at 1 µM (CLK2): 82%
- % Inh. (Rolipram): 1%
- inhibition at 10 µM (Histamine H2): 23%
- remaining binding at 1 µM (BMPR2): 93%
- remaining binding at 1 µM (FGFR3(G697C)): 63%
- inhibition at 10 µM (Dopamine D2S): 15%
- remaining binding at 1 µM (MTOR): 100%
- remaining binding at 1 µM (CSNK2A2): 69%
- remaining binding at 1 µM [2]: 74%
- % Inh. (Purinergic P2X): 11%
- remaining binding at 1 µM (DRAK1): 71%
- remaining binding at 0.1 µM [3]: 100%
- remaining binding at 1 µM (MELK): 96%
- remaining binding at 0.1 µM (TYRO3): 100%
- remaining binding at 0.1 µM (YES): 100%
- remaining binding at 0.1 µM (SGK2): 100%
- remaining binding at 1 µM (CAMK1D): 99%
- remaining binding at 1 µM (MINK): 29%
- remaining binding at 1 µM (EPHA2): 97%
- remaining binding at 0.1 µM (ULK1): 93%
- remaining binding at 1 µM (MKK7): 100%
- remaining binding at 1 µM (JNK1): 82%
- remaining binding at 1 µM (AMPK-alpha2): 99%
- remaining binding at 0.1 µM (WNK4): 100%
- remaining binding at 1 µM (MAP3K2): 57%
- remaining binding at 1 µM (ERBB3): 98%
- remaining binding at 1 µM (EGFR(E746-A750del)): 76%
- remaining binding at 1 µM (EPHB3): 100%
- remaining binding at 1 µM (CHEK1): 100%
- inhibition at 10 µM (Tachykinin NK1): 19%
- remaining binding at 1 µM (IKK-epsilon): 51%
- remaining binding at 0.1 µM (TNIK): 100%
- % Inh. (GABAA, Muscimol, Central): -3%
- remaining binding at 1 µM (EPHB1): 99%
- remaining binding at 0.1 µM (RET): 100%
